The values below come from patent publication US11180494B2, “Substituted amino acids as integrin inhibitors” (Pliant Therapeutics, Inc., priority 2018, dated 2021).

The target in the first assay is human integrin αvβ6 (Homo sapiens (Human), UniProt P06756+P18564). Put plainly: Proximity-based integrin receptor binding assay (ALPHASCREEN) for inhibitor potency. As to conditions: inhibition of binding of TGF-b1 LAP to human integrin αvβ6; values given in ranges. The method, boiled down: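 AlphaScreen: integrin, compound, TGF-b1 LAP, biotinylated anti-LAP antibody and acceptor beads incubated 2 hours, then streptavidin donor beads 30 minutes, at room temperature in 50 mM Tris-HCl pH 7.5, 0.1% BSA, 1 mM CaCl2 and MgCl2. Excitation 680 nm, emission 520-620 nm; IC50 by four-parameter logistic fit.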
Chain of human integrin αvβ6 (P06756 31-992): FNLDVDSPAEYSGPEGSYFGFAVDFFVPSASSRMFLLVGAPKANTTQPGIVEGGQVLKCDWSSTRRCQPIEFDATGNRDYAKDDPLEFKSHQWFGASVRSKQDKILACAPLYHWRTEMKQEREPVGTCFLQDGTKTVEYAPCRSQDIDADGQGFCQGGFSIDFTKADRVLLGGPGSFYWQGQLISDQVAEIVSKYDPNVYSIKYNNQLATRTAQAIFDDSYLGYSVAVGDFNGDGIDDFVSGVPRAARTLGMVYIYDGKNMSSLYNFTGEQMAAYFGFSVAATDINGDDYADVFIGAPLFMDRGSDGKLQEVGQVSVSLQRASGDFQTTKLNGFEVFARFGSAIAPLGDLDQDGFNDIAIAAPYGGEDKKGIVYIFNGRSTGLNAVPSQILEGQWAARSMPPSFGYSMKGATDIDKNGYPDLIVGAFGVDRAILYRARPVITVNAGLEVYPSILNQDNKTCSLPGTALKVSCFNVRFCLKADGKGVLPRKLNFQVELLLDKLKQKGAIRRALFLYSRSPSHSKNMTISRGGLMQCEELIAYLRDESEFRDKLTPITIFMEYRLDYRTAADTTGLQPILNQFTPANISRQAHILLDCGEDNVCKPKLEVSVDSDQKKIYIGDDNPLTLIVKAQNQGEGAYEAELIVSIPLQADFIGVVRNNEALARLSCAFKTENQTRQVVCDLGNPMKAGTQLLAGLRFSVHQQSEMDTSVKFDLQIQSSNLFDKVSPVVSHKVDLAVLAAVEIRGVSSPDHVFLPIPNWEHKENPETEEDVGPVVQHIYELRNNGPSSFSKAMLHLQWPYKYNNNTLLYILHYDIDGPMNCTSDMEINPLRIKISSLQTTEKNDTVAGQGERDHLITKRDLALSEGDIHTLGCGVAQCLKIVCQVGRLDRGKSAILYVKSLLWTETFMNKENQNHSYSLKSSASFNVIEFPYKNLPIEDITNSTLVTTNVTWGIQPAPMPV
Chain of human integrin αvβ6 (P18564 22-707): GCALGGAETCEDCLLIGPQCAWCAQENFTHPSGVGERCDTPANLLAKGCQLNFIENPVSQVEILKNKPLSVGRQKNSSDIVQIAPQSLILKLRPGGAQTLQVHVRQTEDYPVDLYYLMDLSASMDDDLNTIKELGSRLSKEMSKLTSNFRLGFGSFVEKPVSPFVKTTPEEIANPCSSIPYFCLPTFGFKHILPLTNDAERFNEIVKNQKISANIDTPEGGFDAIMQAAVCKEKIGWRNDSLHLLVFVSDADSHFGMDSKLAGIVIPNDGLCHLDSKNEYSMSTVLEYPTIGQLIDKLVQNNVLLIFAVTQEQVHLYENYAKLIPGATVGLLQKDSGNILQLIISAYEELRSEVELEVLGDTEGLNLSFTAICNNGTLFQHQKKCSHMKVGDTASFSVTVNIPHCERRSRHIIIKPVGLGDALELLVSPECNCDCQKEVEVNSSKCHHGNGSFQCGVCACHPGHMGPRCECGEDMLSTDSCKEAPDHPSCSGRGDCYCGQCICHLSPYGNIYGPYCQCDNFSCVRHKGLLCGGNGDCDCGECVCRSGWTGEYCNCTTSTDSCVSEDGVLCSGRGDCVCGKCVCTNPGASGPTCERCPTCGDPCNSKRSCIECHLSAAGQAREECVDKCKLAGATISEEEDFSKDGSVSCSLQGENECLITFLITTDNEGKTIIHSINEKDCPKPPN
In the case of `O=C(O)C(CCO[C@H]1C[C@H](CCc2ccc3c(n2)NCCC3)C1)NC(=O)[C@H](CO)c1ccccc1` (stereo partly drawn) [Compound 46, N—((S)-3-hydroxy-2-phenylpropanoyl)-O-(trans-3-(2-(5,6,7,8-tetrahydro-1,8-naphthyridin-2-yl)ethyl)cyclobutyl)homoserine], the IC50 – broadly, the midpoint of a concentration-inhibition curve – is 250 to 1000 nM.

With `O=C(N[C@@H](CCO[C@H]1C[C@H](CCc2ccc3c(n2)NCCC3)C1)C(=O)O)c1cc(F)cc(Cl)c1` [Compound 26, N-(3-chloro-5-fluorobenzoyl)-O-(trans-3-(2-(5,6,7,8-tetrahydro-1,8-naphthyridin-2-yl)ethyl)cyclobutyl)homoserine], the concentration for half-maximal inhibition (IC50) was less than 50 nM.

In the case of `O=C(N[C@@H](CCO[C@H]1C[C@H](CCc2ccc3c(n2)NCCC3)C1)C(=O)O)C1CCc2ccccc21` (single isomer, unassigned) [96*,††], the IC50 was 250 to 1000 nM.

`O=C(O)C(CCO[C@H]1C[C@H](CCc2ccc3c(n2)NCCC3)C1)NC(=O)[C@@H](O)c1ccccc1` (stereo partly drawn) [Compound 78, N—((S)-2-hydroxy-2-phenylacetyl)-O-(trans-3-(2-(5,6,7,8-tetrahydro-1,8-naphthyridin-2-yl)ethyl)cyclobutyl)homoserine]: the IC50 is more than 1000 nM.

In the case of `O=C(O)C(CCOCCCCc1ccc2c(n1)NCCC2)NC(=O)[C@@H](O)c1ccccc1` (stereo partly drawn) [Compound 74, N—((S)-2-hydroxy-2-phenylacetyl)-O-(4-(5,6,7,8-tetrahydro-1,8-naphthyridin-2-yl)butyl)homoserine], the IC50 is more than 1000 nM.

`O=C(CC1CC1)N[C@@H](CCO[C@H]1C[C@H](CCc2ccc3c(n2)NCCC3)C1)C(=O)O` [Compound 126, N-(2-cyclopropylacetyl)-O-(trans-3-(2-(5,6,7,8-tetrahydro-1,8-naphthyridin-2-yl)ethyl)cyclobutyl)homoserine]: the IC50 is less than 50 nM.

In the case of `O=C(CC1CCC1)N[C@@H](CCO[C@H]1C[C@H](CCc2ccc3c(n2)NCCC3)C1)C(=O)O` [Compound 124, N-(2-cyclobutylacetyl)-O-(trans-3-(2-(5,6,7,8-tetrahydro-1,8-naphthyridin-2-yl)ethyl)cyclobutyl)homoserine], the IC50 was less than 50 nM.

As for `Cc1cc(F)cc(C)c1C(=O)NC(CCOC1CC(CCc2ccc3c(n2)NCCC3)C1)C(=O)O` (stereo not drawn) [Compound 175], the IC50 was less than 50 nM.

As for `CC(C)N(C)C(=O)N[C@@H](CCO[C@H]1C[C@H](CCc2ccc3c(n2)NCCC3)C1)C(=O)O` [Compound 120, N-(isopropyl(methyl)carbamoyl)-O-(trans-3-(2-(5,6,7,8-tetrahydro-1,8-naphthyridin-2-yl)ethyl)cyclobutyl)homoserine], the IC50 is less than 50 nM.

Take `O=C(O)[C@H](CCO[C@H]1C[C@H](CCc2ccc3c(n2)NCCC3)C1)NC(=O)C1(Cc2cccnc2)CC1` [Compound 185, N-(1-(pyridin-3-ylmethyl)cyclopropane-1-carbonyl)-O-(trans-3-(2-(5,6,7,8-tetrahydro-1,8-naphthyridin-2-yl)ethyl)cyclobutyl)homoserine]: the IC50 was less than 50 nM.

Consider `CC(C)(C(=O)NC(CCO[C@H]1C[C@H](CCc2ccc3c(n2)NCCC3)C1)C(=O)O)c1ccc(F)cc1` (stereo partly drawn) [Compound 102, N-(2-(4-fluorophenyl)-2-methylpropanoyl)-O-(trans-3-(2-(5,6,7,8-tetrahydro-1,8-naphthyridin-2-yl)ethyl)cyclobutyl)homoserine], for which the IC50 is less than 50 nM.

In the case of `CCC(CC)C(=O)N[C@@H](CCO[C@H]1C[C@H](CCc2ccc3c(n2)NCCC3)C1)C(=O)O` [Compound 44, N-(2-ethylbutanoyl)-O-(trans-3-(2-(5,6,7,8-tetrahydro-1,8-naphthyridin-2-yl)ethyl)cyclobutyl)homoserine], the IC50 fell in the range of 50 to 250 nM.

Turning to `CC(=O)NC[C@H](C)OC(=O)N[C@@H](CCO[C@H]1C[C@H](CCc2ccc3c(n2)NCCC3)C1)C(=O)O` [Compound 151, N—((((S)-1-acetamidopropan-2-yl)oxy)carbonyl)-O-(trans-3-(2-(5,6,7,8-tetrahydro-1,8-naphthyridin-2-yl)ethyl)cyclobutyl)homoserine], the IC50 was less than 50 nM.

On to `O=C(O)[C@H](CCOCCCCc1ccc2c(n1)NCCC2)NC(=O)[C@H](O)c1ccccc1` [Compound 76, N—((R)-2-hydroxy-2-phenylacetyl)-O-(4-(5,6,7,8-tetrahydro-1,8-naphthyridin-2-yl)butyl)homoserine], for which the IC50 lay in the range of 250 to 1000 nM.

Consider `CC(C)(C)OC(=O)NC(CCO[C@H]1C[C@H](CCc2ccc3c(n2)NCCC3)C1)C(=O)O` (stereo partly drawn) [Example 12A, N-(tert-butoxycarbonyl)-O-(trans-3-(2-(5,6,7,8-tetrahydro-1,8-naphthyridin-2-yl)ethyl)cyclobutyl)homoserine], for which the IC50 is 50 to 250 nM.

In the case of `CC(C)(C(=O)NC(CCO[C@H]1C[C@H](CCc2ccc3c(n2)NCCC3)C1)C(=O)O)c1cccnc1` (stereo partly drawn) [Compound 91, N-(2-methyl-2-(pyridin-3-yl)propanoyl)-O-(trans-3-(2-(5,6,7,8-tetrahydro-1,8-naphthyridin-2-yl)ethyl)cyclobutyl)homoserine], the IC50 was in the range of 50 to 250 nM.

Take `O=C(N[C@@H](CCO[C@H]1C[C@H](CCc2ccc3c(n2)NCCC3)C1)C(=O)O)O[C@H]1CC[C@@H](c2ccccc2)CC1` [Compound 149, N-(((cis-4-phenylcyclohexyl)oxy)carbonyl)-O-(trans-3-(2-(5,6,7,8-tetrahydro-1,8-naphthyridin-2-yl)ethyl)cyclobutyl)homoserine]: the IC50 is 50 to 250 nM.

As for `CCC(CC)CC(=O)NC(CCO[C@H]1C[C@H](CCc2ccc3c(n2)NCCC3)C1)C(=O)O` (stereo partly drawn) [Compound 45, N-(3-ethylpentanoyl)-O-(trans-3-(2-(5,6,7,8-tetrahydro-1,8-naphthyridin-2-yl)ethyl)cyclobutyl)homoserine], the IC50 was in the range of 50 to 250 nM.

Consider `O=C(N[C@@H](CCO[C@H]1C[C@H](CCc2ccc3c(n2)NCCC3)C1)C(=O)O)C1CCc2ccccc21` (single isomer, unassigned) [110**,†], for which the IC50 is 50 to 250 nM.

Turning to `CC1(C(=O)NC(CCO[C@H]2C[C@H](CCc3ccc4c(n3)NCCC4)C2)C(=O)O)COC1` (stereo partly drawn) [Compound 103, N-(3-methyloxetane-3-carbonyl)-O-(trans-3-(2-(5,6,7,8-tetrahydro-1,8-naphthyridin-2-yl)ethyl)cyclobutyl)homoserine], the IC50 is less than 50 nM.

Turning to `Cc1ccc2c(c1)N(C(=O)C1(C(=O)N[C@@H](CCO[C@H]3C[C@H](CCc4ccc5c(n4)NCCC5)C3)C(=O)O)CC1)CC2` [Compound 182, N-(1-(6-methylindoline-1-carbonyl)cyclopropane-1-carbonyl)-O-(trans-3-(2-(5,6,7,8-tetrahydro-1,8-naphthyridin-2-yl)ethyl)cyclobutyl)homoserine], the IC50 was 50 to 250 nM.

Turning to `CC(C)N(C(=O)N[C@@H](CCO[C@H]1C[C@H](CCc2ccc3c(n2)NCCC3)C1)C(=O)O)C(C)C` [Compound 121, N-(diisopropylcarbamoyl)-O-(trans-3-(2-(5,6,7,8-tetrahydro-1,8-naphthyridin-2-yl)ethyl)cyclobutyl)homoserine], the IC50 was less than 50 nM.

As for `CC(C)(C)OC(=O)N[C@@H](CCO[C@H]1C[C@@H](CCc2ccc3c(n2)NCCC3)C1)C(=O)O` [Compound 18, N-(tert-butoxycarbonyl)-O-(cis-3-(2-(5,6,7,8-tetrahydro-1,8-naphthyridin-2-yl)ethyl)cyclobutyl)homoserine], the IC50 lay in the range of 50 to 250 nM.

For `O=C(N[C@@H](CCO[C@H]1C[C@@H](CCc2ccc3c(n2)NCCC3)C1)C(=O)O)c1cccc(F)c1Cl` [Compound 14, N-(2-chloro-3-fluorobenzoyl)-O-(cis-3-(2-(5,6,7,8-tetrahydro-1,8-naphthyridin-2-yl)ethyl)cyclobutyl)homoserine], the IC50 was less than 50 nM.

As for `O=C(NC(CCOC1CC(CCc2ccc3c(n2)NCCC3)C1)C(=O)O)c1cc(F)cc(C(F)(F)F)c1` (stereo not drawn) [Compound 10, N-(3-fluoro-5-(trifluoromethyl)benzoyl)-O-(3-(2-(5,6,7,8-tetrahydro-1,8-naphthyridin-2-yl)ethyl)cyclobutyl)homoserine], the IC50 was in the range of 50 to 250 nM.

`O=C(N[C@@H](CCO[C@H]1C[C@H](CCc2ccc3c(n2)NCCC3)C1)C(=O)O)c1cccc(CO)c1` [Compound 50, N-(3-(hydroxymethyl)benzoyl)-O-(trans-3-(2-(5,6,7,8-tetrahydro-1,8-naphthyridin-2-yl)ethyl)cyclobutyl)homoserine]: the IC50 was less than 50 nM.

Turning to `O=C(O)C(CCO[C@H]1C[C@H](CCc2ccc3c(n2)NCCC3)C1)NC(=O)[C@H](CO)c1ccccc1` (stereo partly drawn) [Compound 47, N—((S)-3-hydroxy-2-phenylpropanoyl)-O-(trans-3-(2-(5,6,7,8-tetrahydro-1,8-naphthyridin-2-yl)ethyl)cyclobutyl)homoserine], the IC50 was 250 to 1000 nM.

With `Cn1ccc2cc(C(=O)N[C@@H](CCO[C@H]3C[C@H](CCc4ccc5c(n4)NCCC5)C3)C(=O)O)cnc21` [Compound 48, N-(1-methyl-1H-pyrrolo[2,3-b]pyridine-5-carbonyl)-O-(trans-3-(2-(5,6,7,8-tetrahydro-1,8-naphthyridin-2-yl)ethyl)cyclobutyl)homoserine], the 50% inhibitory concentration (IC50) lay within 250 to 1000 nM.

Turning to `O=C(N[C@@H](CCO[C@H]1C[C@H](CCc2ccc3c(n2)NCCC3)C1)C(=O)O)c1ccnc2cc[nH]c12` (relative stereo) [Compound 170, N-(1H-pyrrolo[3,2-b]pyridine-7-carbonyl)-O-(trans-3-(2-(5,6,7,8-tetrahydro-1,8-naphthyridin-2-yl)ethyl)cyclobutyl)homoserine], the IC50 was less than 50 nM.

Still in this assay, the particulars now being: inhibition of binding of TGF-b1 LAP to human integrin αvβ6; values given in ranges; listed as 98**.
In the case of `CC(C)(C(=O)NC(CCO[C@H]1C[C@H](CCc2ccc3c(n2)NCCC3)C1)C(=O)O)c1ccccc1` (stereo partly drawn) [Compound 98, N-(2-methyl-2-phenylpropanoyl)-O-(trans-3-(2-(5,6,7,8-tetrahydro-1,8-naphthyridin-2-yl)ethyl)cyclobutyl)homoserine], the IC50 was less than 50 nM.
